Experimental data as given in patent US20240217951A1, “PCSK9 INHIBITORS AND METHODS OF USE THEREOF” (AstraZeneca AB, priority 2022, published 2024).

How the values were obtained:
human PCSK9 = target: T1, human PCSK9 (Homo sapiens, UniProt Q8NBP7); experiment: Assay 2 - Biophysical human PCSK9 assay (SPR, Biacore); type: binding; conditions: geometric mean; SPR at 30° C; read-out: Assay 2 (PCSK9 BIAcore DBA CR) GMean Kd
T1 construct: biotinylated human PCSK9 (31-692)-Avi-His6; His6 (C)
Experimental: Assay 2—Biophysical Human PCSK9 Assay
The SPR binding experiments were performed on a Biacore S200 optical biosensor unit at 30° C. A Series S Sensor Chip SA that is designed to bind biotinylated molecules for interaction analysis in Biacore systems was equilibrated at room temperature prior to use. The running buffer for protein tethering and subsequent ligand binding experiments was 10 mM HEPES pH 7.4, 150 mM NaCl, 0.05% (v/v) Tween 20 pH 7.4.
For the surface tethering of PCSK9, biotinylated human PCSK9 (31-692)-Avi-His6 at a concentration of 0.5 mg/mL was used. Prior to the surface tethering, the surface was exposed to a solution of 50 mM NaOH, 500 mM NaCl via 3 consecutive injections of this solution with a contact time of 60 s and a flowrate of 10 μL min^−1 to remove non-conjugated streptavidin. The PCSK9 protein was diluted to a concentration of 20 μg/mL using running buffer and injected with a contact time of 180-300 s and a flowrate of 10 μL min^−1 over a single flow channel (typically flow channel 2 or flow channel 4) with the aim to achieve protein capture levels of >5000 response units (RU). Remaining biotin binding sites were blocked via 2 consecutive injections of a 10 μM D-biotin solution in running buffer with a contact time of 60 s and a flowrate of 10 μL min^−1 over all flow-channels. Flow-channels 1 and 3 typically served as a reference surface throughout the subsequent binding experiments.
The binding experiments were all performed at a flow rate of 30 PL min^−1 and by employing the method of single-cycle kinetics. This approach involves the sequential injection of a compound concentration series without regeneration steps. A contact time between 90-150 s was selected, which was followed by a 40 min dissociation phase to allow for a proper estimation of the dissociation rate constant. Test compounds were delivered in DMSO at a concentration of 10 mM and a digital dispenser HP D300 was used to set up the compound concentration series using 6 concentrations. The tested concentrations have been 30, 100, 300, 1000, 3000 and 10000 nM. Prior to injecting any compound, the surfaces were equilibrated by injecting running buffer over them in three separate pulses. The data collection rate was set to 10 Hz.
The raw sensorgrams of the compound injections were first subjected to reference subtraction (subtracting the signal from flow channel 1 and/or 3 from the signal from channels 2 and/or 4 respectively) and then blank subtraction (subtracting the signal from injecting DMSO controls from the reference subtracted data). The resulting double-referenced sensorgrams were then fitted using a 1:1 binding interaction model using the manufactures software package to extract kinetic- and affinity data. Active compounds have been defined by creating a detectable binding signal at the highest compound concentration ([…]) of 3 RUs. Kinetic- and affinity data on active compounds are only provided for those compounds where the binding signal at the highest compound concentration ([…]) is 50% of the theoretical maximum binding signal for a 1:1 binding interaction (Rmax, typically between 15-20 RUs) in order to enable a proper fitting of the data.

[1] = target: T2, hERG potassium ion channel (Homo sapiens, UniProt Q12809); experiment: Assay 5 - hERG assay (SyncroPatch 384PE patch clamp, CHO cells); type: cell-based; conditions: human, CHO-K1 cells over-expressing hERG, pH 7.4, geometric mean, read-out: Assay 5 (hERG Hu CHO IF EPh CR-Syncro) GMean IC50
T2 construct: expressed in transfected cells; host or cells: Chinese hamster ovary K1 (CHO)
T2 sequence (Q12809 whole entry): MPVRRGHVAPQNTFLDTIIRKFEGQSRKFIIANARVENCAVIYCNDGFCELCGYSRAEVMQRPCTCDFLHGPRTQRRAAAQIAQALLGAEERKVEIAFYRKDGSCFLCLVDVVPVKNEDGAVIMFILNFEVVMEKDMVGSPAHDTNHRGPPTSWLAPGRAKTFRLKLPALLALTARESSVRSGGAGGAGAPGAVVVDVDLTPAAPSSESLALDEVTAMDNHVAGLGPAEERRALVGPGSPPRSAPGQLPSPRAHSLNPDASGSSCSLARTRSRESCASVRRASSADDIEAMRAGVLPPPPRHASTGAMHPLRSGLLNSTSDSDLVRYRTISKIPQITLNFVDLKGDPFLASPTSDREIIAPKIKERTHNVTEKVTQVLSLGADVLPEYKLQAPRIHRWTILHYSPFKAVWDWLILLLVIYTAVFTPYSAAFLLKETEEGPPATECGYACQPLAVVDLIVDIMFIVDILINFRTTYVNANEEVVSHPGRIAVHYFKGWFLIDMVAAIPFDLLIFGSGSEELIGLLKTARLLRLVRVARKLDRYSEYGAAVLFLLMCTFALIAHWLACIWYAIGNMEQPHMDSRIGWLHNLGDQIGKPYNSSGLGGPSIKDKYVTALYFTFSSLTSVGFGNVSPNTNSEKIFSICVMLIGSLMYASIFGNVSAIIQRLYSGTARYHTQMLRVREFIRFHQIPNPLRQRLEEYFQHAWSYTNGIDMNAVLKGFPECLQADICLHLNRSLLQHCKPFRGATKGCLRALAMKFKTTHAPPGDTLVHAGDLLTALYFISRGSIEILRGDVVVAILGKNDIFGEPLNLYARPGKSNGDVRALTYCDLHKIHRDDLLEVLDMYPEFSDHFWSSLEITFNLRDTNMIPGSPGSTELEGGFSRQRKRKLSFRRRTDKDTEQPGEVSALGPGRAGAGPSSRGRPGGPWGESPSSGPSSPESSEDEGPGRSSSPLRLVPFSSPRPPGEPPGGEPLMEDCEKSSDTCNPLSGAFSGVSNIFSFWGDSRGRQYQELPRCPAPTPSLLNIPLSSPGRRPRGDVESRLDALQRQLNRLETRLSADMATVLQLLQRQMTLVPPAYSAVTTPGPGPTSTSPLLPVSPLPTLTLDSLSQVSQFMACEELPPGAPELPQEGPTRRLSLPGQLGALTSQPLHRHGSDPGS
Outline: (§1)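 Automated high-throughput patch clamp on CHO-K1 cells overexpressing hERG at room temperature, KF/KCl internal with escin, NMDG-containing external at pH 7.4. Six-point cumulative compound addition, 0.33% DMSO final; wells kept only with seal >30 MΩ, Z′ >0.4 and current >0.2 nA.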

[2] = target: GSK3β (Glycogen synthase kinase-3 beta) (Homo sapiens, UniProt P49841); experiment: Assay 6 - GSK3β assay (ThermoFisher Z-Lyte); type: biochemical; conditions: geometric mean; ATP Conc: 10 μM; read-out: Assay 6 (GSK3β FRET-Z-Lyte CR) GMean IC50 (μM) ATP Conc: 10
Chain of GSK3β (Glycogen synthase kinase-3 beta) (P49841 whole entry): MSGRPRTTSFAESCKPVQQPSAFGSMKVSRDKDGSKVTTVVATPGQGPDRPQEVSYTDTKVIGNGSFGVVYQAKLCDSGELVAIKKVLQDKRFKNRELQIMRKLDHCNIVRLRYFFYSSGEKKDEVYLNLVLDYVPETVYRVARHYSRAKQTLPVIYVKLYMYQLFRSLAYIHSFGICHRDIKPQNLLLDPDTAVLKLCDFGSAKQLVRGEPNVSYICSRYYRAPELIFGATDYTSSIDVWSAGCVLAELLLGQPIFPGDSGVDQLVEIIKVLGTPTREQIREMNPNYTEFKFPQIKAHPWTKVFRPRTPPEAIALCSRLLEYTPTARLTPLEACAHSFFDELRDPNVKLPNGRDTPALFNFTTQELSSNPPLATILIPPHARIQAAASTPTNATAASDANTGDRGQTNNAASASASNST
Outline: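 Z-Lyte fluorescence kinase assay with 0.22-0.92 ng GSK3β and 2 μM Ser/Thr 09 peptide in 50 mM HEPES pH 7.5, 10 mM MgCl2, 1 mM EGTA, 0.01% BRIJ-35. Kinase reaction 60 min at room temperature, then 60 min development. 10-point 3-fold titration from 10 μM in 1% DMSO, fitted to a sigmoidal dose-response curve.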

PCSK9 = PCSK9 (Homo sapiens, UniProt Q8NBP7, G670E/V474I); experiment: biochemical
Chain of PCSK9 (Q8NBP7 with tags, fused parts or gaps V474I/G670E): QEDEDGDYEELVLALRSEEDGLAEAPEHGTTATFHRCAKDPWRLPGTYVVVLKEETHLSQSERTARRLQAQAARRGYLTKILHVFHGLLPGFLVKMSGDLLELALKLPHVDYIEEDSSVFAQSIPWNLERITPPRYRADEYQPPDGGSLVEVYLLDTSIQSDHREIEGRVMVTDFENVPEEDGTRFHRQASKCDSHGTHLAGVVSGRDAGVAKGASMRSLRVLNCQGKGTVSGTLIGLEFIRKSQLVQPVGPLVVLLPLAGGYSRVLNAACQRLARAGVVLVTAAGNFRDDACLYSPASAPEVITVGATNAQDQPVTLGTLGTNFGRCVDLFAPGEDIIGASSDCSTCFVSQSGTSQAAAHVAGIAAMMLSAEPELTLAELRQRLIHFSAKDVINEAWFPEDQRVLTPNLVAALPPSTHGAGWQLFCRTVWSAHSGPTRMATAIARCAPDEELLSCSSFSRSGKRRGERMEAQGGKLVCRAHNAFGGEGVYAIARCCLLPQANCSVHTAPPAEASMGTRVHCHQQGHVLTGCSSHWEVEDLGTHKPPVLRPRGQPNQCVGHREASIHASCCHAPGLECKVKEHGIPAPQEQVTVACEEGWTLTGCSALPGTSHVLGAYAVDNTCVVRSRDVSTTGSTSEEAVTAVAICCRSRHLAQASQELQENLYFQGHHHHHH

[3] = target: T3, potassium ion channel hERG (human Ether-á-go-go-Related Gene) (Homo sapiens, UniProt Q12809); experiment: Assay 5 - hERG assay (SyncroPatch 384PE patch clamp, CHO cells); type: cell-based; conditions: geometric mean; CHO cells over-expressing hERG; read-out: Assay 5 (hERG Hu CHO IF EPh CR-Syncro) GMean IC50
T3 construct: expressed in transfected cells; host or cells: Chinese hamster ovary K1 (CHO)
T3 sequence (Q12809 whole entry): as the sequence (Q12809 whole entry) above
Outline: as §1

[4] = clinical trials, patients; alirocumab compared to placebo; cited from earlier work

T1 sequence (Q8NBP7 31-692): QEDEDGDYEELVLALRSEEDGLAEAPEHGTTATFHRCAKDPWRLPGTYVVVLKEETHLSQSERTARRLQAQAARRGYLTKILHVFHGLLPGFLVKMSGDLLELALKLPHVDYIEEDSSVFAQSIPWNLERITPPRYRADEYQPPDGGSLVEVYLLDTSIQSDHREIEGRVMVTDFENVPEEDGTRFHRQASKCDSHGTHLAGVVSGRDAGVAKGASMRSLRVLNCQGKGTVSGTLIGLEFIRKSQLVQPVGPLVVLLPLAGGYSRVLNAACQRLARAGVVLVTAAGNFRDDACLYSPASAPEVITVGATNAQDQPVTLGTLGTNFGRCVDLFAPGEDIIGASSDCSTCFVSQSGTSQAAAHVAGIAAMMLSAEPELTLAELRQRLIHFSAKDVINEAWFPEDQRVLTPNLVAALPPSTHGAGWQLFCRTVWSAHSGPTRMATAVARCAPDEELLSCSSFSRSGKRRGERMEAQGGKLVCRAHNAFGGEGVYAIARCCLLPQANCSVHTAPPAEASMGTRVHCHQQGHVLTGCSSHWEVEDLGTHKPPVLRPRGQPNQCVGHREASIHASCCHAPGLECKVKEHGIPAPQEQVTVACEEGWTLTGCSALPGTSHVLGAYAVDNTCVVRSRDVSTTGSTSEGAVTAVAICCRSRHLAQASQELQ

Compound | Kd (human PCSK9) | IC50 [1] | IC50 [2] | IC50 (PCSK9) | IC50 [3] | decrease in LDL levels [4]
Cc1nc(N[C@H]2CC[C@H](Nc3cnc(OC(F)F)cn3)C2)ccc1-n1ccccc1=O [Example 97, 6′-(((1S,3S)-3-((5-(Difluoromethoxy)pyrazin-2-yl)amino)cyclopentyl)amino)-2′-methyl-2H-[1,3′-bipyridin]-2-one] | 26 nM | 35400 nM | > 10 µM | 63 nM | – | –
Cc1cnc(N[C@H]2CC[C@H](Nc3ccc(-n4nccc(C#N)c4=O)cn3)C2)cn1 [Example 278, 2-(6-(((1S,3S)-3-((5-Methylpyrazin-2-yl)amino)cyclopentyl)amino)pyridin-3-yl)-3-oxo-2,3-dihydropyridazine-4-carbonitrile] | 12 nM | – | > 10 µM | 13 nM | > 40100 nM | –
alirocumab | – | – | – | – | – | about 50%
